According to PubChem BioAssay AID1996:
Converted amounts (≈) assume the structure as drawn.

Details: buffer; pH 7.4; 200.0 µM

Compound	solubility kinetic [µg/mL]
O=C(Nc1ccc(Cl)c(Cl)c1)Nc1ccon1	1.6 (≈ 5.88 µM)
CC(=O)Nc1ccc(Nc2ccccc2)cc1	> 33.9
CN(C)NC(=O)c1cccc(Cl)c1	> 29.8
Cc1cccc(NC(=S)N2CCCC2)c1	> 33
CCCCNC(=S)N1CCN(C)CC1.O=C(O)C(=O)O	> 45.8
O=C(NC1CC2CCCC(C1)N2Cc1ccc(F)cc1)c1ccc(F)cc1 (stereo not drawn)	> 55.6
Cc1ccccc1-n1nc2c(c1NC(=O)C(C)(C)C)CS(=O)(=O)C2	> 52.1
O=C(Nc1cccc(C(F)(F)F)c1)Nc1ccon1	9.9 (≈ 36.5 µM)
COc1c(C)cc(S(=O)(=O)NCCN2CCOCC2)c(C)c1C	46.4 (≈ 135 µM)
O=c1ccnc(SCCc2ccccc2)[nH]1	> 34.8
CC(=O)NCc1ccc(S(=O)(=O)N2CCCN(C)CC2)cc1.Cl	> 54.3
Cc1ccc2c(c1)N(CC(=O)Nc1ccccc1F)C(=O)CO2	0.7 (≈ 2.23 µM)
Cc1ccc(N2CCN(S(=O)(=O)N3CCCCC3)CC2)c(C)c1	3.8 (≈ 11.3 µM)
Cc1ccc2nc(/C(C#N)=C/c3ccccc3C(=O)O)[nH]c2c1	> 45.5
CC(C)COc1ccc(Cc2c(O)[nH]c(=S)[nH]c2=O)cc1	28.9 (≈ 94.3 µM)
CC(Sc1nc2ccccc2[nH]1)C(=O)Nc1ccccc1F (stereo not drawn)	43.9 (≈ 139 µM)
Cc1ccc(NC(=O)c2nsc(Cl)c2Cl)cc1	< 0.3
O=C(NCCSCc1ccco1)c1ccc(=O)[nH]c1	38.2 (≈ 137 µM)
CC(C)c1ccc(/C=C/C(=O)N2CCOCC2)cc1	36.3 (≈ 140 µM)
CC1CCCCN1CCCNc1c(C=O)c(=O)[nH]c2ccccc12 (stereo not drawn)	46.7 (≈ 143 µM)
C=CCSc1nc(N2CCOCC2)c2c(c1C#N)CC(C)(C)N(C)C2	49.9 (≈ 139 µM)
COc1ccc(-c2c(C#N)c(N)nc(Sc3ccc(Cl)cc3)c2C#N)cc1	< 0.2

Compound	solubility kinetic [µg/mL]
O=C(CCc1ccc(S(=O)(=O)N2CCOCC2)cc1)Nc1ccc(F)c(F)c1F	44.6 (≈ 104 µM)
O=C(O)c1ccccc1-c1ccccc1C(=O)NCc1ccccc1F	38.4 (≈ 110 µM)
O=C(CSc1n[nH]c(=O)n1C1CC1)Nc1ccccc1	> 43.6
O=C(COc1ccccc1)Nc1c(Cl)ccc2nsnc12	4.7 (≈ 14.7 µM)
CCNc1nc(NC(C)CC)nc(ON=C(C)C)n1 (stereo not drawn)	> 40
Cc1ccccc1C(=O)NCC(=O)NC1CC1	> 34.8
CC(=O)c1ccc(Nc2c(C)n(C)n(-c3ccccc3)c2=O)cc1	> 48.2
COc1ccc(Br)cc1/C=C(\C(=O)O)c1ccc(S(=O)(=O)N2CCCC2)s1	> 70.9
CC(C)(C)N(Cc1ccccc1)C(=O)COC(=O)c1ccc(S(=O)(=O)N2CCOCC2)cc1	18.4 (≈ 38.8 µM)
Cc1ccc(C(=O)NCC(c2ccco2)N2CCOCC2)cc1 (stereo not drawn)	> 47.2
O=C(Nc1ccccc1N1CCOCC1)c1ccc([N+](=O)[O-])s1	4.6 (≈ 13.8 µM)
CCc1ccccc1NC(=S)NCCSc1ccc(Cl)cc1	1.8 (≈ 5.13 µM)
Cc1ccc(NC(=O)CCC(=O)N2CCOCC2)nc1	> 41.6
CC(C)(C)C(=O)Nc1nnc(SCC(=O)NC2CC2)s1	> 47.2
COc1ccc(C)cc1NC(=O)COC(=O)c1ccc([N+](=O)[O-])o1	3.4 (≈ 10.2 µM)
N#Cc1ccccc1S(=O)(=O)Nc1ccc2c(c1)OCCO2	> 47.4
C=CCNC(=O)CC12CC3CC(C1)CC(CC(=O)NCC=C)(C3)C2	> 49.6
COc1ccccc1C(=O)NCCC(=O)NCC1CCCCC1	47.4 (≈ 149 µM)
CC1(C)C(=O)N(c2ccccc2)C(=O)c2ccccc21	25.8 (≈ 97.2 µM)
CC(=O)c1ccc(NC(=O)COC(=O)CC2CC3CCC2C3)cc1 (stereo not drawn)	37.5 (≈ 114 µM)
COc1cc(C(=O)O/N=C(\N)c2ccccn2)cc(OC)c1OC	> 49.7
